Data published in patent publication US9650361B2, “N-(pyridin-2-yl)pyrimidin-4-amine derivatives containing a sulfoximine group” (BAYER PHARAM AKTIENGESELLSCHAFT, priority 2012, dated 2017).
pIC50: −log10 of the molar value. Converted amounts (≈) assume the structure as drawn.

Key:
[1] = Equilibrium shake flask solubility assay, thermodynamic solubility in water (Method 4a); format: physicochemical; details: aqueous buffer, thermodynamic from solid; phosphate buffer pH 6.5, 24 h, room temperature
Method: 4. Equilibrium Shake Flask Solubility Assay:
4a) Thermodynamic Solubility in Water
The thermodynamic solubility of compounds in water was determined by an equilibrium shake flask method (see for example: E. H. Kerns, L. Di: Drug-like Properties: Concepts, Structure Design and Methods, 276-286, Burlington, Mass., Academic Press, 2008). A saturated solution of the drug was prepared and the solution was mixed for 24 h to ensure that equilibrium was reached. The solution was centrifuged to remove the insoluble fraction and the concentration of the compound in solution was determined using a standard calibration curve. To prepare the sample, 2 mg solid compound was weighed in a 4 mL glass vial. 1 mL phosphate buffer pH 6.5 was added. The suspension was stirred for 24 hrs at room temperature. The solution was centrifuged afterwards. To prepare the sample for the standard calibration, 2 mg solid sample was dissolved in 30 mL acetonitrile. After sonification the solution was diluted with water to 50 mL. Sample and standards were quantified by HPLC with UV-detection. For each sample two injection volumes (5 and 50 μl) in triplicates were made. Three injection volumes (5 μl, […]) were made for the standard. […]
The areas of sample- and standard injections as well as the calculation of the solubility value (in mg/l) were determined by using HPLC software (Waters Empower 2 FR).

[2] = target: T1, human carbonic anhydrase-2 (Homo sapiens, UniProt P00918); assay: Carbonic anhydrase assay, carbonic anhydrase-2 (Method 6); format: biochemical; details: read-out: Inhibition of Carbonic anhydrase-2 IC50
T1 construct: purchased Sigma C6165
Method: 6. Carbonic Anhydrase Assay
The principle of the assay is based on the hydrolysis of 4-nitrophenyl acetate by carbonic anhydrases (Pocker & Stone, Biochemistry, 1967, 6, 668), with subsequent photometric determination of the dye product 4-nitrophenolate at 400 nm by means of a 96-channel spectral photometer.
2 μL of the test compounds, dissolved in DMSO (100-fold final concentration), in a concentration range of 0.03-10 μmol/L (final), was pipetted as quadruplicates into the wells of a 96-hole microtiter plate. Wells that contained the solvent without test compounds were used as reference values (1. Wells without carbonic anhydrase for correction of the non-enzymatic hydrolysis of the substrate, and 2. Wells with carbonic anhydrase for determining the activity of the non-inhibited enzyme).
188 μL of assay buffer (10 mmol/L of Tris/HCl, pH 7.4, 80 mmol/L of NaCl), with or without 3 units/well of carbonic anhydrase-1 [=human carbonic anhydrase-1 (Sigma, #C4396)] in order to determine carbonic anhydrase-1 inhibition or 3 units/well of carbonic anhydrase-2 [=human carbonic anhydrase-2 (Sigma, #C6165)] for measuring carbonic anhydrase-2 inhibition, was pipetted into the wells of the microtiter plate.

With `COc1cc(F)ccc1-c1cc(Nc2cc(CS(C)(=N)=O)ccn2)ncn1` (racemic) [Example 1, (rac)-6-(4-Fluoro-2-methoxyphenyl)-N-{4-[(S-methylsulfonimidoyl)methyl]pyridin-2-yl}pyrimidin-4-amine] the solubility at 24 h [1] was 7 µg/mL (≈ 18.1 µM) and the pIC50 [2] was under 5.00.
